Measured values as given in paper PMC10698726 (Molecular Pharmaceutics, 2023).
Read-outs that look alike come from different tables or passages of the source.

Legend:
OCT3 = biological target: T1, OCT3 (Homo sapiens, UniProt O75751); experiment: Inhibition of model substrate uptake in OCT3-overexpressing HEK293 cells; format: cell-based; settings: for stereoselective inhibition of OCT3 (in words): ethambutol and zolmitriptan as substrates
T1 construct: expressed in transfected cells; host or cells: HEK293
T1 sequence (O75751 1-556): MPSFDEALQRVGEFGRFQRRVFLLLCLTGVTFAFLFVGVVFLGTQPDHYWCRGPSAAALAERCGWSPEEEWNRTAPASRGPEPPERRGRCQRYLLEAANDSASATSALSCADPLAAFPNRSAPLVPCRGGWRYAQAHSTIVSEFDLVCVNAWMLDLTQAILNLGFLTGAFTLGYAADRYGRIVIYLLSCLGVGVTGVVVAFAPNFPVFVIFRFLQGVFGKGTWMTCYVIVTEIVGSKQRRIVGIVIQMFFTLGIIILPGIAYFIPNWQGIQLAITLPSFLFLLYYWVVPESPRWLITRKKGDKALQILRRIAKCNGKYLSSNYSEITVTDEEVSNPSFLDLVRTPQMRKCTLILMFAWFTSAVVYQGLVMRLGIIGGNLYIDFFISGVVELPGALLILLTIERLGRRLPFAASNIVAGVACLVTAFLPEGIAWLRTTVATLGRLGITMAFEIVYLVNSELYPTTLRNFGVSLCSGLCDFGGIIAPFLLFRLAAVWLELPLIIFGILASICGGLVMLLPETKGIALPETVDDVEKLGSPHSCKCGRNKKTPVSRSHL
How it was run: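 Transporter-overexpressing HEK293 cells were incubated 5 min in HBSS+ with 2 μM model substrate, with or without 20 μM inhibitor or increasing inhibitor concentrations. Uptake was read as ASP^+ fluorescence or by LC–MS/MS, with empty-vector uptake subtracted. IC50 came from a Hill fit of activity versus log concentration.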

OCT1 = biological target: T2, OCT1 (Homo sapiens, UniProt O15245); experiment: Inhibition of model substrate uptake in OCT1-overexpressing HEK293 cells; format: cell-based; design: expressed in transfected cells; host or cells: HEK293; settings: for inhibition at 5 min, 20 μM / selectivity ratio at 5 min: OCT1-overexpressing HEK293 cells; for selectivity ratio at 5 min: pH 7.4, OCT1, read-out: x-fold Stereoselectivity
T2 sequence (O15245 1-554): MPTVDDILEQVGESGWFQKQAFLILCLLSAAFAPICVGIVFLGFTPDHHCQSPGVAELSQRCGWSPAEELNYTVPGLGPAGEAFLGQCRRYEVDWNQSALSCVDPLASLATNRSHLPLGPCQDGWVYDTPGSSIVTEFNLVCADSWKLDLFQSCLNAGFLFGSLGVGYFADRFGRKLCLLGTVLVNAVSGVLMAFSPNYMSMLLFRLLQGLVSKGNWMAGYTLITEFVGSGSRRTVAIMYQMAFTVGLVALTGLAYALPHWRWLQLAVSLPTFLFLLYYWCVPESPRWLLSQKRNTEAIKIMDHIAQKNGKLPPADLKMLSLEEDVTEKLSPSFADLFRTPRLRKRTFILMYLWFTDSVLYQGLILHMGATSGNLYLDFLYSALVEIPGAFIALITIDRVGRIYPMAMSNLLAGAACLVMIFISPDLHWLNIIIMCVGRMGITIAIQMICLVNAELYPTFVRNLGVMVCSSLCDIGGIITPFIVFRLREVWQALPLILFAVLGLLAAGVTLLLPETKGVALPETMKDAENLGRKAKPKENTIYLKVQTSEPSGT
Description: Koepsell and Gorbulev (University of Würzburg, Germany).
Fluorescence quantification was performed in technical duplicates.

OCT2 = biological target: T3, OCT2 (Homo sapiens, UniProt O15244); experiment: Inhibition of model substrate uptake in OCT2-overexpressing HEK293 cells; settings: for inhibition at 5 min, 20 μM / (S,S)-Ethambutol inhibition [%] / ASP+ inhibition [%] / N-Ethyllidocaine inhibition [%]: 20 μM inhibitor; for inhibition at 5 min, 20 μM / (S,S)-Ethambutol inhibition [%] / ASP+ inhibition [%] / N-Ethyllidocaine inhibition [%] / IC50: 5 min; for IC50: IC50, OCT2, Table S5, 2 μM ASP+ as model substrate
T3 sequence (O15244 1-555): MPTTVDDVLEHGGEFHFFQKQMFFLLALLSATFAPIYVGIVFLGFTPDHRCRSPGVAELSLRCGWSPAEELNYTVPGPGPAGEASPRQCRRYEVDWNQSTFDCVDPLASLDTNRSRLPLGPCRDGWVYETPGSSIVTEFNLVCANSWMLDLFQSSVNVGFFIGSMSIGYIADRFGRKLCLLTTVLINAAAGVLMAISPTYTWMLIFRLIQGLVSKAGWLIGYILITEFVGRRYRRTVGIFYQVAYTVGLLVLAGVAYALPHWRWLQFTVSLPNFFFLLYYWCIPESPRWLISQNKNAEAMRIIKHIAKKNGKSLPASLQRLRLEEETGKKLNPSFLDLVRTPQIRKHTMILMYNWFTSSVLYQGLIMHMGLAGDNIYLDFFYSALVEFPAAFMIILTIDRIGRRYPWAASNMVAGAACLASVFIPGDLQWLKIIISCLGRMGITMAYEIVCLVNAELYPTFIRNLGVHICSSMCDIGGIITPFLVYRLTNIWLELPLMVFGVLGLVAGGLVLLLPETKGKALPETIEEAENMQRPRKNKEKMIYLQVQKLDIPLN

[1] = HEK293, 5 min, read-out: (S)-Zolmitriptan inhibition [%], OCT3, 20 μM inhibitor, 2 μM (S)-zolmitriptan, 5 min
[2] = HEK293, 5 min, read-out: (S,S)-Ethambutol inhibition [%], OCT3, 20 μM inhibitor, 2 μM (S,S)-ethambutol, 5 min
[3] = HEK293, OCT3, 20 μM inhibitor, 2 μM ASP+, 5 min, read-out: ASP+ inhibition [%]
[4] = human, pH 7.4, probe (S,S)-ethambutol (2 μM), (S,S)-Ethambutol inhibition [%], OCT1, 20 μM inhibitor, 2 μM (S,S)-ethambutol, 5 min
[5] = human, pH 7.4, probe ASP+ (2 μM), OCT1, 20 μM inhibitor, 2 μM ASP+, 5 min, mean of three experiments, read-out: ASP+ inhibition [%]
[6] = human, pH 7.4, probe sumatriptan (2 μM), OCT1, 20 μM inhibitor, 2 μM sumatriptan, 5 min, read-out: Sumatriptan inhibition [%]
[7] = human, OCT2-overexpressing HEK293 cells, pH 7.4, probe (S,S)-ethambutol (2 μM), (S,S)-Ethambutol inhibition [%], OCT2, 2 μM (S,S)-ethambutol
[8] = human, OCT2-overexpressing HEK293 cells, pH 7.4, probe ASP+ (2 μM), ASP+ inhibition [%], OCT2, 2 μM ASP+
[9] = human, OCT2-overexpressing HEK293 cells, pH 7.4, probe N-ethyllidocaine (2 μM), N-Ethyllidocaine inhibition [%], OCT2, 2 μM N-ethyllidocaine
[10] = OCT3, 20 μM inhibitor, 2 μM (S)-zolmitriptan, 5 min
[11] = OCT3, 20 μM inhibitor, 2 μM (S,S)-ethambutol, 5 min
[12] = OCT3, 20 μM inhibitor, 2 μM ASP+, 5 min
[13] = OCT1, 20 μM inhibitor, 2 μM (S,S)-ethambutol, 5 min
[14] = OCT1, 20 μM inhibitor, 2 μM ASP+, 5 min, mean of three experiments
[15] = OCT1, 20 μM inhibitor, 2 μM sumatriptan, 5 min
[16] = human, ratio of the IC50 values of the two enantiomers of the drug

Row | SMILES | inhibition at 20 µM (OCT3; [1]) [%] | inhibition at 20 µM (OCT3; [2]) [%] | inhibition at 20 µM (OCT3; [3]) [%] | inhibition at 5 min, 20 μM (OCT1; [4]) [%] | inhibition at 5 min, 20 μM (OCT1; [5]) [%] | inhibition at 5 min, 20 μM (OCT1; [6]) [%] | inhibition at 5 min, 20 μM (OCT2; [7]) [%] | inhibition at 5 min, 20 μM (OCT2; [8]) [%] | inhibition at 5 min, 20 μM (OCT2; [9]) [%] | (S)-Zolmitriptan inhibition [%] (OCT3; [10]) | (S,S)-Ethambutol inhibition [%] (OCT3; [11]) | ASP+ inhibition [%] (OCT3; [12]) | (S,S)-Ethambutol inhibition [%] (OCT1; [13]) | ASP+ inhibition [%] (OCT1; [14]) | Sumatriptan inhibition [%] (OCT1; [15]) | (S,S)-Ethambutol inhibition [%] (OCT2; OCT2, 2 μM (S,S)-ethambutol) | ASP+ inhibition [%] (OCT2; OCT2, 2 μM ASP+) | N-Ethyllidocaine inhibition [%] (OCT2; OCT2, 2 μM N-ethyllidocaine) | other results
1 | CC(C)Cc1ccc([C@H](C)C(=O)O)cc1 [(S)-Ibuprofen] | -0.8 | 11.3 | 12.9 | -10.6 | 8.8 | -3.4 | 14.5 | 10.9 | 10.4 |  |  |  |  |  |  |  |  |  | 
2 | Cc1cccc(C)c1OC[C@H](C)N [(S)-Mexiletine] | 30 | 11.8 | -6.6 | 78 | 40.1 | 84.3 | 58.7 | 52.9 | 51.3 |  |  |  |  |  |  |  |  |  | 
3 | NC[C@@H](O)c1ccc(O)c(O)c1 [(S)-Norepinephrine] |  |  |  |  |  |  |  |  |  | -6.6 | 12.5 | -3.5 | 6.1 | -3.3 | 6.6 | 5.1 | 20.5 | 7.1 | 
4 | CCN(CC)CC#CCOC(=O)[C@@](O)(c1ccccc1)C1CCCCC1 [(S)-Oxybutynine] |  |  |  |  |  |  |  |  |  | 65.2 | 75.7 | 40.5 | 96.3 | 59.3 | 83.5 | 24.5 | 92.8 | 48.6 | IC50 (OCT3; IC50, OCT3, Table S5, 2 μM ASP+ or ethambutol as model substrate, 5 min): 40 µM; IC50 (OCT1; IC50, OCT1, Table S5, 2 μM ASP+ or ethambutol as model substrate, 5 min): 141 µM; IC50 (OCT2): 20.1 µM
5 | CNC[C@@H](O)c1cccc(O)c1 [(S)-Phenylephrine] | -3.9 | 5.6 | 2.7 | 6.2 | 5.2 | -5.1 | 5.5 | 5.4 | -2.7 |  |  |  |  |  |  |  |  |  | 
6 | CC(C)NC[C@H](O)COc1cccc2ccccc12 [(S)-Propranolol] |  |  |  |  |  |  |  |  |  | 38.2 | 32.0 | -2.9 | 74.3 | 40.6 | 82.8 | 28.4 | 57.3 | 32.4 | IC50 (OCT3; OCT3, Table 1, read-out: IC50): 69 µM
7 | C#CCN[C@H]1CCc2ccccc21 [(S)-Rasagiline] |  |  |  |  |  |  | 57 | 59.6 | 59.5 | 6.7 | 8.8 | -7.7 | 37.5 | 6.9 | 50.6 |  |  |  | 
8 | CC(C)(C)NC[C@@H](O)c1ccc(O)c(CO)c1 [(S)-Salbutamol] |  |  |  |  |  |  |  |  |  | -3.4 | 14.5 | 1.3 | 9.3 | 6.1 | -10.2 | 3.0 | -2.8 | -17.4 | 
9 | CC(C)C[C@H](N(C)C)C1(c2ccc(Cl)cc2)CCC1 [(S)-Sibutramine] |  |  |  |  |  |  |  |  |  |  |  | -0.8 |  | 38.0 |  |  | 83.9 | 44.0 | (S)-Zolmitriptan inhibition [%] (OCT3): 24.1; (S,S)-Ethambutol inhibition [%] (OCT3): 23.8; Sumatriptan inhibition [%] (OCT1; human, pH 7.4): 72.0%
10 | CC(C)(C)NC[C@H](O)COc1nsnc1N1CCOCC1 [(S)-Timolol] | 16.8 | 11.1 | 27.8 | 25.6 | 3.9 | 42.1 | 14.4 | 50.1 | 25.1 |  |  |  |  |  |  |  |  |  | IC50 (OCT2): 60.2 µM
11 | COc1ccc([C@@H](CN(C)C)C2(O)CCCCC2)cc1 [(S)-Venlafaxine] |  |  | -11.4 |  |  |  |  |  |  |  |  |  |  |  |  |  | 21.8 | 13.4 | inhibition at 20 µM (OCT3; HEK293, 5 min, read-out: (S)-Zolmitriptan inhibition [%]): 21%; inhibition at 20 µM (OCT3; HEK293, 5 min, read-out: (S,S)-Ethambutol inhibition [%]): 4.6%; Sumatriptan inhibition [%] (OCT1; human, pH 7.4): 66.9%
12 | CCCCN1CCCCC1C(=O)Nc1c(C)cccc1C (centres unmarked) [Bupivacaine] |  |  |  |  |  |  |  |  |  |  |  |  |  |  |  |  |  |  | stereoselective inhibition of OCT3 (in words) (OCT3; 20 μM inhibitor): stereoselective inhibition; x-fold Stereoselectivity (OCT1; OCT1, ratio of the IC50 values of the two enantiomers of the drug): 1.2 fold; selectivity ratio at 5 min (OCT1; [16]): 1.8; selectivity ratio at 5 min (OCT2; human, OCT2-overexpressing HEK293 cells, pH 7.4): 2.3
13 | CCN(CC)CC#CCOC(=O)C(O)(c1ccccc1)C1CCCCC1 (centres unmarked) [Oxybutynine] |  |  |  |  |  |  |  |  |  |  |  |  |  |  |  |  |  |  | x-fold Stereoselectivity (OCT3; OCT3, ratio of the IC50 values of the two enantiomers of the drug): 1.6 fold; stereoselective inhibition of OCT3 (in words) (OCT3; 20 μM inhibitor): stereoselective inhibition; selectivity ratio at 5 min (OCT1; [16]): 1.2; x-fold Stereoselectivity (OCT2; OCT2, ratio of the IC50 values of the two enantiomers of the drug): 1.6 fold
